Measurements published in US20060069132A1, “Azolecarboxamide herbicides” (priority 2004, published 2006).

What was measured:
rice = assay: Test C flooded paddy test; type: in vivo, Oryza sativa; settings: for Plant response rating, Rice: 500 g ai/ha, visual rating after 12 to 14 days
Summary of the method: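 Plants were grown to the 1- to 4-leaf stage (2–18 cm) and then treated postemergence, or grown to the 2-leaf stage for the flooded paddy test. They were held in a greenhouse for 12 to 14 days and then scored by eye against controls, where 0 is no effect and 100 is complete control.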

corn = assay: Test B pre-/postemergence herbicide test; type: in vivo, Zea mays
Summary of the method: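 Response was scored visually 13 to 15 days after treatment against untreated greenhouse controls, 0 meaning no effect and 100 complete control. Formulations (solvent mixture plus surfactant) went onto soil after planting, onto foliage of 1- to 4-leaf plants, and onto 2-leaf plants in a flooded paddy set including rice and barnyardgrass.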

blackgrass = assay: Test B postemergence herbicide test; type: in vivo, Alopecurus myosuroides; settings: for Plant response rating, Blackgrass: Postemergence, visual rating after 13 to 15 days; for Blackgrass plant response rating: postemergence
Summary of the method: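 Each value is a visual 0–100 response rating taken against controls 13 to 15 days after treatment in the greenhouse. Plants received formulated chemical postemergence at the 1- to 4-leaf stage or, in flooded paddy, at the 2-leaf stage.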

ducksalad = assay: Test C flooded paddy test; type: in vivo, Heteranthera limosa; settings: for Plant response rating, Ducksalad: 500 g ai/ha, visual rating after 12 to 14 days
redroot pigweed = assay: Test A pre-/postemergence herbicide test; type: in vivo, Amaranthus retroflexus
Summary of the method: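 Pre: seeded sandy loam, directed soil spray, compound in non-phytotoxic solvent + surfactant. Post: 1–2-leaf plants (2–10 cm), sprayed to runoff. Greenhouse ~10 d; visual injury vs untreated, 0–100 scale.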

common ragweed = assay: Test C pre-/postemergence herbicide test; type: in vivo, Ambrosia elatior; parameters: key to Plant response rating, Ragweed: 0 = no effect, 100 = complete control; settings: for Plant response rating, Ragweed: visual, 12 to 14 days
Excerpt: (§1) Seeds of plant species selected from bermudagrass (Cynodon dactylon (L.) Pers.), Surinam grass (Urochloa decumbens (Staph) R. D. Webster, previously named Brachiaria decumbens Stapf), cocklebur (Xanthium strumarium L.), corn (Zea mays L.), large crabgrass (Digitaria sanguinalis (L.) Scop.), woolly cupgrass (Eriochloa villosa (Thunb.) Kunth), giant foxtail (Setaria faberi Herrm.), goosegrass (Eleusine indica (L.) Gaertn.), johnsongrass (Sorghum halepense (L.) Pers.), kochia (Kochia scoparia (L.) Schrad.), lambsquarters (Chenopodium album L.), morningglory (Ipomoea coccinea L.), eastern black nightshade (Solanum ptycanthum Dunal), yellow nutsedge (Cyperus esculentus L.), pigweed (Amaranthus retroflexus L.), common ragweed (Ambrosia elatior L.), soybean (Glycine max (L.) Merr.), common (oilseed) sunflower (Helianthus annuus L.) and velvetleaf (Abutilon theophrasti Medik.) were planted and treated preemergence with test chemicals formulated in a non-phytotoxic solvent mixture which included a surfactant.
(§2) At the same time, plants selected from these crop and weed species and also winter barley (Hordeum vulgare L.), blackgrass (Alopecurus myosuroides Huds.), canarygrass (Phalaris minor Retz.), chickweed (Stellaria media (L.) Vill.), downy bromegrass (Bromus tectorum L.), green foxtail (Setaria viridis (L.) Beauv.), Italian ryegrass (Lolium multiflorum Lam.), wheat (Triticum aestivum L.), wild oat (Avenafatua L.) and windgrass (Apera spica-venti (L.) Beauv.) were treated with postemergence applications of some of the test chemicals formulated in the same manner. Plants ranged in height from 2 to 18 cm (1- to 4-leaf stage) for postemergence treatments. Plant species in the flooded paddy test consisted of rice (Oryza sativa), smallflower umbrella sedge (Cyperus difformis L.), ducksalad (Heteranthera limosa (Sw.) Willd.) and barnyardgrass (Echinochloa crus-galli (L.) Beauv.) grown to the 2-leaf stage for testing. Treated plants and controls were maintained in a greenhouse for 12 to 14 days, after which time all species were compared to controls and visually evaluated. Plant response ratings, summarized in Table C, are based on a scale of 0 to 100 where 0 is no effect and 100 is complete control. A dash (-) response means no test result.

soybean = assay: Test C pre-/postemergence herbicide test; type: in vivo, Glycine max; settings: for Plant response rating, Soybean: visual, 12 to 14 days
Excerpt: as §1, §2

woolly cupgrass = assay: Test C pre-/postemergence herbicide test; type: in vivo, Eriochloa villosa; settings: for Plant response rating, Cupgrass, Woolly: visual, 12 to 14 days
Excerpt: as §1, §2

[1] = 62 g ai/ha, scale 0 to 100 (0 no effect, 100 complete control)
[2] = 125 g ai/ha, scale of 0 to 100, 0 is no effect, 100 is complete control
[3] = 250 g ai/ha, scale of 0 to 100, 0 is no effect, 100 is complete control
[4] = scale 0 to 100 (0 no effect, 100 complete control)
[5] = Preemergence, 500 g ai/ha, scale 0 to 100
[6] = preemergence, 125 g ai/ha, 0 to 100 scale, 0 is no effect, 100 is complete control
[7] = 500 g ai/ha, scale 0 (no effect) to 100 (complete control)
[8] = 125 g ai/ha, visual rating, scale 0 (no effect) to 100 (complete control)
[9] = Postemergence, 500 g ai/ha, 0 to 100 scale, 0 no effect, 100 complete control
[10] = Postemergence, 2000 g ai/ha, 0 to 100 scale, 0 no effect, 100 complete control
[11] = Preemergence, 500 g ai/ha, visual rating, 0 to 100 scale (0 no effect, 100 complete control)
[12] = Preemergence, 2000 g ai/ha, 0 to 100 scale, 0 no effect, 100 complete control
[13] = 125 g ai/ha, scale 0 (no effect) to 100 (complete control), preemergence
[14] = 250 g ai/ha, scale 0 to 100 (0 no effect, 100 complete control), preemergence
[15] = Preemergence, 500 g ai/ha, scale 0 to 100, 0 no effect, 100 complete control
[16] = Postemergence, 500 g ai/ha, visual rating after 13 to 15 days, scale 0 (no effect) to 100 (complete control)
[17] = postemergence, 125 g ai/ha, visual rating, scale 0 (no effect) to 100 (complete control)
[18] = 125 g ai/ha, scale 0 to 100 (0 no effect, 100 complete control)
[19] = 125 g ai/ha, 0 = no effect, 100 = complete control, preemergence
[20] = 500 g ai/ha, visual rating, 0 = no effect, 100 = complete control, preemergence
[21] = postemergence, 500 g ai/ha, scale 0 to 100, 0 is no effect, 100 is complete control
[22] = 500 g ai/ha, scale 0 to 100, 0 is no effect, 100 is complete control
[23] = Preemergence, 2000 g ai/ha, visual rating, 0 to 100 scale (0 no effect, 100 complete control)
[24] = preemergence, 500 g ai/ha, visual injury, 0 to 100 scale (0 no effect, 100 complete control)

SMILES | Rice plant response rating (rice; [1]) | Rice plant response rating (rice; [2]) | Rice plant response rating (rice; [3]) | Plant response rating, Rice (rice; [4]) | Corn plant response rating (corn; [5]) | Plant response rating, Corn (corn; [6]) | Plant response rating, Blackgrass (blackgrass; [7]) | Blackgrass plant response rating (blackgrass; [8]) | Ducksalad plant response rating (ducksalad; [1]) | Ducksalad plant response rating (ducksalad; [2]) | Ducksalad plant response rating (ducksalad; [3]) | Plant response rating, Ducksalad (ducksalad; [4]) | Plant response rating, Pigweed (redroot pigweed; [9]) | Plant response rating, Pigweed (redroot pigweed; [10]) | Pigweed plant response rating (redroot pigweed; [11]) | Pigweed plant response rating (redroot pigweed; [12]) | Plant response rating, Corn (corn; [16]) | Corn plant response rating (corn; [17]) | Rice plant response rating (rice; 62 g ai/ha, scale 0 to 100) | Rice plant response rating (rice; [18]) | further results
CCOC(=O)c1cccc(NC(=O)c2cc(C(C)(C)C)nn2CCF)c1 [Compound 79] | 20 | 20 | 20 | 30 | 0 | 0 | 30 | 20 | 0 | 0 | 15 | 55 | 95 | 85 | 45 | 90 | – | – | – | – | –
CCCn1nc(C(C)(C)C)cc1C(=O)Nc1cccc(C(=O)NCC)c1 [Compound 57] | – | – | – | – | 0 | 0 | 10 | 0 | – | – | – | – | – | – | – | – | 20 | 20 | – | – | Plant response rating (0 = no effect, 100 = complete control), Ragweed (common ragweed; 62 g ai/ha, preemergence): 65; Plant response rating, Ragweed (common ragweed; [13]): 100; Plant response rating, Ragweed (common ragweed; [14]): 100; Ragweed plant response rating (common ragweed; [15]): 100; Plant response rating (0 = no effect, 100 = complete control), Soybean (soybean; 62 g ai/ha, preemergence): 0; Plant response rating, Soybean (soybean; [13]): 0; Plant response rating, Soybean (soybean; [14]): 0; Soybean plant response rating (soybean; [15]): 60; Plant response rating (0 = no effect, 100 = complete control), Cupgrass, Woolly (woolly cupgrass; 62 g ai/ha, preemergence): 0; Plant response rating, Cupgrass, Woolly (woolly cupgrass; [13]): 0; Plant response rating, Cupgrass, Woolly (woolly cupgrass; [14]): 25; Cupgrass, Woolly plant response rating (woolly cupgrass; [15]): 70
CCn1nc(C(C)(C)C)cc1C(=O)Nc1cccc(OC(C)C)c1 [Compound 273] | – | – | 50 | 60 | – | – | – | 50 | – | – | 75 | 75 | – | 100 | – | – | – | 10 | 10 | 40 | Corn plant response rating (0 to 100 scale) (corn; [19]): 0; Plant response rating, Corn (corn; [20]): 30; Corn plant response rating (corn; [21]): 20; Blackgrass plant response rating (blackgrass; [22]): 70; Ducksalad plant response rating (ducksalad; 62 g ai/ha, scale 0 to 100): 20; Ducksalad plant response rating (ducksalad; [18]): 50; Pigweed plant response rating (redroot pigweed; [9]): 100; Pigweed plant response rating (redroot pigweed; [23]): 100; Pigweed plant response rating (redroot pigweed; [24]): 100
CCn1nc(C(C)(C)C)cc1C(=O)Nc1cccc(C(=O)NOC)c1 [Compound 67] | 0 | 0 | 0 | 30 | – | 0 | 10 | 10 | 30 | 30 | 40 | 40 | 50 | 85 | 0 | 90 | 10 | 10 | – | – | –
CCn1nc(C(C)(C)C)cc1C(=O)Nc1cccc(C(=O)N2CC=CC2)c1 [Compound 286] | – | – | 65 | 75 | – | – | – | 10 | – | – | 90 | 90 | – | 85 | – | – | – | 0 | 45 | 55 | Corn plant response rating (0 to 100 scale) (corn; [19]): 0; Plant response rating, Corn (corn; [20]): 50; Corn plant response rating (corn; [21]): 10; Blackgrass plant response rating (blackgrass; [22]): 20; Ducksalad plant response rating (ducksalad; 62 g ai/ha, scale 0 to 100): 50; Ducksalad plant response rating (ducksalad; [18]): 75; Pigweed plant response rating (redroot pigweed; [9]): 55; Pigweed plant response rating (redroot pigweed; [23]): 95; Pigweed plant response rating (redroot pigweed; [24]): 85
